pIC50: −log10 of the molar value.
These molecules were tested against T1, RET (Homo sapiens, UniProt P07949) (assay: Inhibition of RET kinase activity, recombinant RET method (Kinase-Glo)). Conditions: RET 2 μg/ml, poly-EY4 substrate, 20 μM ATP, two hours at 30° C.
T1 construct: purchased Upstate 14-570MG
T1 sequence (P07949 29-1114): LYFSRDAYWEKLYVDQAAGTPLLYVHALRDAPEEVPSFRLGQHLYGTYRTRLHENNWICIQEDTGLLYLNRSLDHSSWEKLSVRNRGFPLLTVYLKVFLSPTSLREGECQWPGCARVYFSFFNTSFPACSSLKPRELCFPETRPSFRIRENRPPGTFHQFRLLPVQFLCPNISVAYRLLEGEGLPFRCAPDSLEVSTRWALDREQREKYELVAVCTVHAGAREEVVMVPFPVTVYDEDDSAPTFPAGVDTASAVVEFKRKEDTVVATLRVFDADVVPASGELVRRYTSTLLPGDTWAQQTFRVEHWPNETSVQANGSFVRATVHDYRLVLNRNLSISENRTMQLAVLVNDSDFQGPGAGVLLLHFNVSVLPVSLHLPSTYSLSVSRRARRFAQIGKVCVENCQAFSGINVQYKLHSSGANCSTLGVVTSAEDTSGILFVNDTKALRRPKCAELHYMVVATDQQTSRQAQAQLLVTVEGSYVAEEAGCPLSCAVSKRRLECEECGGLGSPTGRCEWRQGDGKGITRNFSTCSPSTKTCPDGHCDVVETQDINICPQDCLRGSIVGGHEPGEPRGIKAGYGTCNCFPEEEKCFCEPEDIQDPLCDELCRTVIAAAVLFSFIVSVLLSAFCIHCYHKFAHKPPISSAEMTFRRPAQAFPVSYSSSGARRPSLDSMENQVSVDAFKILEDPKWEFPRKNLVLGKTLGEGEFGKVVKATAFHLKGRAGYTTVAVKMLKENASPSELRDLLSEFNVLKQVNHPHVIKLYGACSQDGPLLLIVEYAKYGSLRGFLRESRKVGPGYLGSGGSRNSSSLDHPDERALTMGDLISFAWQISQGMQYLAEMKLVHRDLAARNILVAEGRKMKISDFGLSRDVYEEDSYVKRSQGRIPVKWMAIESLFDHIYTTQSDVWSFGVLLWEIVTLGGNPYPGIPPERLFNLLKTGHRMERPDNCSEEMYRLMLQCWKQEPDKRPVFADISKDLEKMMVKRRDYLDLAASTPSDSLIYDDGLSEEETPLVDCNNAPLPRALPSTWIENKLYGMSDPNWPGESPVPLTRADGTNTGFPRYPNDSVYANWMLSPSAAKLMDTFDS
Assay type: biochemical
Experimental: The inhibition of the kinase activity of the compounds of the invention is assessed by measuring their IC50 on RET.
where: • Y is the value of the luminescence • X is the logarithm of the concentration of the compound • Bottom is the minimum Y value • Top is the maximum Y value • LogIC50 is the value of X when Y is 50% from Top—Bottom.
The quantity of RET required is 2 μg/ml.
The following buffer is used for dilution of RET: 20 mM MOPS/NaOH pH7.0, 1 mM EDTA, 5% glycerol, 0.01% Brij35 (Sigma B4184), 0.1% 2-mercaptoethanol, 1 mg/ml BSA (Sigma A3059-10G).
The dilution of the compounds of the invention is distributed so as to obtain a scale of final concentrations between 10 nM and 30 μM.
After incubation of the reaction mixture for two hours at 30° C., the level of ATP that remains is assayed using the Kinase-Glo Luminescent Kinase Assay (Promega #V6712) according to the conditions recommended by the supplier. The luminescence induced is read in a plate reader (Envision-Perkin Elmer).
`CCOC(=O)c1c[nH]c2c(=O)[nH]c3ccc(S(=O)(=O)Nc4ccccc4C)cc3c12` [Compound 4, 4-Oxo-8-o-tolylsulfamoyl-4,5-dihydro-3H-pyrrolo[2,3-c]quinoline-1-ethyl carboxylate] showed a pIC50 greater than 7.00. `CCOC(=O)c1c[nH]c2c(=O)[nH]c3ccc(S(=O)(=O)Nc4cccc(C)c4)cc3c12` [Compound 5, 4-Oxo-8-m-tolylsulfamoyl-4,5-dihydro-3H-pyrrolo[2,3-c]quinoline-1-ethyl carboxylate] gave a pIC50 of 6.00 to 7.00. `CCOC(=O)c1c[nH]c2c(=O)[nH]c3ccc(S(=O)(=O)Nc4ccccc4OC)cc3c12` [Compound 7, 8-(2-Methoxy-phenylsulfamoyl)-4-oxo-4,5-dihydro-3H-pyrrolo[2,3-c]quinoline-1-ethyl carboxylate] showed a pIC50 of 6.00 to 7.00. Work on `CCOC(=O)c1c[nH]c2c(=O)[nH]c3ccc(S(=O)(=O)Nc4ccc(OC)cc4)cc3c12` [Compound 9, 8-(4-Methoxy-phenylsulfamoyl)-4-oxo-4,5-dihydro-3H-pyrrolo[2,3-c]quinoline-1-ethyl carboxylate] yielded a pIC50 of 6.00 to 7.00. Molecule `CCOC(=O)c1c[nH]c2c(=O)[nH]c3ccc(S(=O)(=O)Nc4cccc(Cl)c4)cc3c12` [Compound 10, 8-(3-Chlorophenylsulfamoyl)-4-oxo-4,5-dihydro-3H-pyrrolo[2,3-c]quinoline-1-ethyl carboxylate] has a pIC50 of 6.00 to 7.00. Work on `CCOC(=O)c1c[nH]c2c(=O)[nH]c3ccc(S(=O)(=O)Nc4ccc(Cl)cc4)cc3c12` [Compound 11, 8-(4-Chlorophenylsulfamoyl)-4-oxo-4,5-dihydro-3H-pyrrolo[2,3-c]quinoline-1-ethyl carboxylate] yielded a pIC50 of 6.00 to 7.00. `CCOC(=O)c1c[nH]c2c(=O)[nH]c3ccc(S(=O)(=O)N(C)c4ccc(F)cc4)cc3c12` [Compound 13, 8-[(4-Fluorophenyl)-N-methyl-sulfamoyl)-4-oxo-4,5-dihydro-3H-pyrrolo[2,3-c]quinoline-1-ethyl carboxylate] was tested, and the pIC50 was greater than 7.00. In the case of `CCOC(=O)c1ccc(NS(=O)(=O)c2ccc3[nH]c(=O)c4[nH]cc(C(=O)OCC)c4c3c2)cc1` [Compound 14, 8-(4-Ethoxycarbonyl-phenylsulfamoyl)-4-oxo-4,5-dihydro-3H-pyrrolo[2,3-c]quinoline-1-ethyl carboxylate], the pIC50 was 5.00 to 6.00. With `CCOC(=O)c1c[nH]c2c(=O)[nH]c3ccc(S(=O)(=O)Nc4cccc(O)c4)cc3c12` [Compound 15, 8-(3-Hydroxy-phenylsulfamoyl)-4-oxo-4,5-dihydro-3H-pyrrolo[2,3-c]quinoline-1-ethyl carboxylate] the pIC50 was 6.00 to 7.00. `CCOC(=O)c1c[nH]c2c(=O)[nH]c3ccc(S(=O)(=O)Nc4cccc(F)c4C)cc3c12` [Compound 16, 8-(3-Fluoro-2-methyl-phenylsulfamoyl)-4-oxo-4,5-dihydro-3H-pyrrolo[2,3-c]quinoline-1-ethyl carboxylate] gave a pIC50 greater than 7.00. In the case of `CCOC(=O)c1c[nH]c2c(=O)[nH]c3ccc(S(=O)(=O)Nc4ccc(F)cc4C)cc3c12` [Compound 17, 8-(4-Fluoro-2-methyl-phenylsulfamoyl)-4-oxo-4,5-dihydro-3H-pyrrolo[2,3-c]quinoline-1-ethyl carboxylate], the pIC50 was greater than 7.00. Work on `CCOC(=O)c1c[nH]c2c(=O)[nH]c3ccc(S(=O)(=O)Nc4ccc(F)c(F)c4)cc3c12` [Compound 18, 8-(3,4-Difluorophenylsulfamoyl)-4-oxo-4,5-dihydro-3H-pyrrolo[2,3-c]quinoline-1-ethyl carboxylate] yielded a pIC50 greater than 7.00. For `CCOC(=O)c1c[nH]c2c(=O)[nH]c3ccc(S(=O)(=O)Nc4cc(F)cc(F)c4)cc3c12` [Compound 19, 8-(3,5-Difluorophenylsulfamoyl)-4-oxo-4,5-dihydro-3H-pyrrolo[2,3-c]quinoline-1-ethyl carboxylate], the pIC50 was 6.00 to 7.00. In the case of `CCOC(=O)c1c[nH]c2c(=O)[nH]c3ccc(S(=O)(=O)Nc4ccc(N)cc4)cc3c12` [Compound 20, 8-(4-Aminophenylsulfamoyl)-4-oxo-4,5-dihydro-3H-pyrrolo[2,3-c]quinoline-1-ethyl carboxylate], the pIC50 was greater than 7.00. `CCOC(=O)c1c[nH]c2c(=O)[nH]c3ccc(S(=O)(=O)N4CCc5ccccc54)cc3c12` [Compound 21, 8-(2,3-Dihydro-indole-1-sulfonyl)-4-oxo-4,5-dihydro-3H-pyrrolo[2,3-c]quinoline-1-ethyl carboxylate] gave a pIC50 of 6.00 to 7.00. Work on `CCOC(=O)c1c[nH]c2c(=O)[nH]c3ccc(S(=O)(=O)Nc4ccc(N5CCOCC5)cc4)cc3c12` [Compound 22, 8-(4-Morpholin-4-yl-phenylsulfamoyl)-4-oxo-4,5-dihydro-3H-pyrrolo[2,3-c]quinoline-1-ethyl carboxylate] yielded a pIC50 of 4.00 to 5.00. Molecule `CCOC(=O)c1c[nH]c2c(=O)[nH]c3ccc(S(=O)(=O)Nc4cccnc4)cc3c12` [Compound 23, 4-Oxo-8-(pyridin-3-ylsulfamoyl)-4,5-dihydro-3H-pyrrolo[2,3-c]quinoline-1-ethyl carboxylate] has a pIC50 of 6.00 to 7.00. `CCOC(=O)c1c[nH]c2c(=O)[nH]c3ccc(S(=O)(=O)N(C)Cc4ccccc4)cc3c12` [Compound 24, 8-(Benzyl-methyl-sulfamoyl)-4-oxo-4,5-dihydro-3H-pyrrolo[2,3-c]quinoline-1-ethyl carboxylate] showed a pIC50 of 6.00 to 7.00. In the case of `CCOC(=O)c1c[nH]c2c(=O)[nH]c3ccc(S(=O)(=O)N(C)CCc4ccccc4)cc3c12` [Compound 25, 8-(Methyl-phenethyl-sulfamoyl)-4-oxo-4,5-dihydro-3H-pyrrolo[2,3-c]quinoline-1-ethyl carboxylate], the pIC50 was 5.00 to 6.00. In the case of `CCOC(=O)c1c[nH]c2c(=O)[nH]c3ccc(S(=O)(=O)N(C)C)cc3c12` [Compound 26, 8-Dimethylsulfamoyl-4-oxo-4,5-dihydro-3H-pyrrolo[2,3-c]quinoline-1-ethyl carboxylate], the pIC50 was 6.00 to 7.00. Work on `CCOC(=O)c1c[nH]c2c(=O)[nH]c3ccc(S(=O)(=O)NC)cc3c12` [Compound 27, 8-Methylsulfamoyl-4-oxo-4,5-dihydro-3H-pyrrolo[2,3-c]quinoline-1-ethyl carboxylate] yielded a pIC50 of 6.00 to 7.00. For `CCOC(=O)c1c[nH]c2c(=O)[nH]c3ccc(S(=O)(=O)N4CCOCC4)cc3c12` [Compound 28, 8-(Morpholine-4-sulfonyl)-4-oxo-4,5-dihydro-3H-pyrrolo[2,3-c]quinoline-1-ethyl carboxylate], the pIC50 was 6.00 to 7.00. With `CCOC(=O)CCNS(=O)(=O)c1ccc2[nH]c(=O)c3[nH]cc(C(=O)OCC)c3c2c1` [Compound 29, 8-(2-Ethoxycarbonyl-ethylsulfamoyl)-4-oxo-4,5-dihydro-3H-pyrrolo[2,3-c]quinoline-1-ethyl carboxylate] the pIC50 was 5.00 to 6.00. For `CCOC(=O)c1c[nH]c2c(=O)[nH]c3ccc(S(=O)(=O)NC4CCCCC4)cc3c12` [Compound 30, 8-Cyclohexylsulfamoyl-4-oxo-4,5-dihydro-3H-pyrrolo[2,3-c]quinoline-1-ethyl carboxylate], the pIC50 was 6.00 to 7.00. Molecule `CCOC(=O)c1c[nH]c2c(=O)[nH]c3ccc(S(=O)(=O)NC4CCCCCC4)cc3c12` [Compound 31, 8-Cycloheptylsulfamoyl-4-oxo-4,5-dihydro-3H-pyrrolo[2,3-c]quinoline-1-ethyl carboxylate] has a pIC50 of 6.00 to 7.00. `CCOC(=O)c1c[nH]c2c(=O)[nH]c3ccc(S(=O)(=O)Cc4ccccc4)cc3c12` [Compound 35, 4-Oxo-8-phenylmethanesulfonyl-4,5-dihydro-3H-pyrrolo[2,3-c]quinoline-1-ethyl carboxylate] showed a pIC50 greater than 7.00. Work on `CCOC(=O)c1c[nH]c2c(=O)[nH]c3ccc(S(=O)(=O)Cc4c(Cl)cccc4Cl)cc3c12` [Compound 36, 8-(2,6-Dichlorophenylmethanesulfonyl)-4-oxo-4,5-dihydro-3H-pyrrolo[2,3-c]quinoline-1-ethyl carboxylate] yielded a pIC50 of 6.00 to 7.00. Work on `CCOC(=O)c1c[nH]c2c(=O)[nH]c3ccc(NS(C)(=O)=O)cc3c12` [Compound 38, 8-Methanesulfonylamino-4-oxo-4,5-dihydro-3H-pyrrolo[2,3-c]quinoline-1-ethyl carboxylate] yielded a pIC50 of 6.00 to 7.00. For `CCOC(=O)c1c[nH]c2c(=O)[nH]c3ccc(NS(=O)(=O)Cc4ccccc4)cc3c12` [Compound 39, 4-Oxo-8-phenylmethanesulfonylamino-4,5-dihydro-3H-pyrrolo[2,3-c]quinoline-1-ethyl carboxylate], the pIC50 was 6.00 to 7.00. `CCOC(=O)c1c[nH]c2c(=O)[nH]c3ccc(NS(=O)(=O)c4ccc(Cl)cc4)cc3c12` [Compound 40, 8-(4-Chloro-benzenesulfonylamino)-4-oxo-4,5-dihydro-3H-pyrrolo[2,3-c]quinoline-1-ethyl carboxylate] gave a pIC50 of 6.00 to 7.00. `CCOC(=O)c1c[nH]c2c(=O)[nH]c3ccc(NS(=O)(=O)c4cccc(Cl)c4)cc3c12` [Compound 41, 8-(3-Chloro-benzenesulfonylamino)-4-oxo-4,5-dihydro-3H-pyrrolo[2,3-c]quinoline-1-ethyl carboxylate] gave a pIC50 of 6.00 to 7.00. Work on `CCOC(=O)c1c[nH]c2c(=O)[nH]c3ccc(NS(=O)(=O)c4ccccc4Cl)cc3c12` [Compound 42, 8-(2-Chloro-benzenesulfonylamino)-4-oxo-4,5-dihydro-3H-pyrrolo[2,3-c]quinoline-1-ethyl carboxylate] yielded a pIC50 of 4.00 to 5.00. `CCOC(=O)c1c[nH]c2c(=O)[nH]c3ccc(NS(=O)(=O)c4ccc(Br)cc4)cc3c12` [Compound 46, 8-(4-Bromo-benzenesulfonylamino)-4-oxo-4,5-dihydro-3H-pyrrolo[2,3-c]quinoline-1-ethyl carboxylate] gave a pIC50 of 6.00 to 7.00. `CCOC(=O)c1c[nH]c2c(=O)[nH]c3ccc(NS(=O)(=O)c4ccc(C)cc4)cc3c12` [Compound 47, 4-Oxo-8-(4-toluenesulfonylamino)-4,5-dihydro-3H-pyrrolo[2,3-c]quinoline-1-ethyl carboxylate] was tested, and the pIC50 was 6.00 to 7.00.
